Key:
[1] = target: Endothelin receptor type B (Homo sapiens) (UniProt P24530); assay: ETB (h) Eurofins-Cerep binding assay; parameters: ligand concentration 0.03 nM; conditions: filed as agonist, Compound concentration 10.0 uM
[2] = target: Glutamate NMDA receptor (Rattus norvegicus) (UniProt P35439+Q00959+Q00960+Q00961+Q62645+Q8VHN2+Q9R1M7); assay: NMDA Eurofins-Cerep binding assay; format: protein-complex assay; parameters: ligand concentration 5 nM; conditions: filed as antagonist, Compound concentration 10.0 uM
[3] = target: Prostaglandin E2 receptor EP2 subtype (Homo sapiens) (UniProt P43116); assay: EP2 (h) Eurofins-Cerep binding assay; parameters: ligand concentration 3 nM; conditions: filed as agonist, Compound concentration 10.0 uM
[4] = test system: Tyrosine-protein kinase ABL1 (Homo sapiens), P00519 [F317L]; conditions: Compound concentration 1000.0 nM
[5] = target: Calcium/calmodulin-dependent protein kinase type 1D (Homo sapiens) (UniProt Q8IU85); conditions: Compound concentration 1000.0 nM
[6] = target: Peripheral plasma membrane protein CASK (Homo sapiens) (UniProt O14936); conditions: Compound concentration 1000.0 nM
[7] = target: Serine/threonine-protein kinase 17B (Homo sapiens) (UniProt O94768); conditions: Compound concentration 1000.0 nM
[8] = test system: Epidermal growth factor receptor (Homo sapiens), P00533 [UNDEFINED MUTATION]; conditions: Compound concentration 1000.0 nM
[9] = target: Ephrin type-A receptor 8 (Homo sapiens) (UniProt P29322); conditions: Compound concentration 1000.0 nM
[10] = target: Ephrin type-B receptor 2 (Homo sapiens) (UniProt P29323); conditions: Compound concentration 1000.0 nM
[11] = target: Fibroblast growth factor receptor 2 (Homo sapiens) (UniProt P21802); conditions: Compound concentration 1000.0 nM
[12] = target: Rhodopsin kinase GRK1 (Homo sapiens) (UniProt Q15835); conditions: Compound concentration 1000.0 nM
[13] = target: Homeodomain-interacting protein kinase 3 (Homo sapiens) (UniProt Q9H422); conditions: Compound concentration 1000.0 nM
[14] = target: Tyrosine-protein kinase JAK2 (Homo sapiens) (UniProt O60674); conditions: Compound concentration 1000.0 nM
[15] = target: LIM domain kinase 1 (Homo sapiens) (UniProt P53667); conditions: Compound concentration 1000.0 nM
[16] = target: Serine/threonine-protein kinase NLK (Homo sapiens) (UniProt Q9UBE8); conditions: Compound concentration 1000.0 nM
[17] = test system: Phosphatidylinositol 4,5-bisphosphate 3-kinase catalytic subunit alpha isoform (Homo sapiens), P42336 [C420R]; conditions: Compound concentration 1000.0 nM
[18] = target: cAMP-dependent protein kinase catalytic subunit PRKX (Homo sapiens) (UniProt P51817); conditions: Compound concentration 1000.0 nM
[19] = target: Serine/threonine-protein kinase RIO2 (Homo sapiens) (UniProt Q9BVS4); conditions: Compound concentration 1000.0 nM
[20] = target: Serine/threonine-protein kinase 35 (Homo sapiens) (UniProt Q8TDR2); conditions: Compound concentration 1000.0 nM
[21] = target: TGF-beta receptor type-1 (Homo sapiens) (UniProt P36897); conditions: Compound concentration 1000.0 nM
[22] = target: Angiopoietin-1 receptor (Homo sapiens) (UniProt Q02763); conditions: Compound concentration 1000.0 nM
[23] = target: Dual specificity protein kinase TTK (Homo sapiens) (UniProt P33981); conditions: Compound concentration 1000.0 nM
[24] = target: Non-receptor tyrosine-protein kinase TYK2 (Homo sapiens) (UniProt P29597); conditions: Compound concentration 1000.0 nM
[25] = target: Serine/threonine-protein kinase VRK2 (Homo sapiens) (UniProt Q86Y07); conditions: Compound concentration 1000.0 nM
[26] = target: D(1A) dopamine receptor (Homo sapiens) (UniProt P21728); conditions: Compound concentration 10.0 uM
[27] = target: GABA-A receptor; anion channel (Rattus norvegicus) (UniProt O09028+P15431+P18506+P18508+P19969+P20236+P23574+P23576+P28471+P28473+P30191+P62813+P63079+P63138+Q91ZM7+Q9ES14); conditions: Compound concentration 10.0 uM
[28] = target: T1, Alpha-2A adrenergic receptor (Homo sapiens) (UniProt P08913); conditions: Compound concentration 10.0 uM
T1 sequence (whole entry): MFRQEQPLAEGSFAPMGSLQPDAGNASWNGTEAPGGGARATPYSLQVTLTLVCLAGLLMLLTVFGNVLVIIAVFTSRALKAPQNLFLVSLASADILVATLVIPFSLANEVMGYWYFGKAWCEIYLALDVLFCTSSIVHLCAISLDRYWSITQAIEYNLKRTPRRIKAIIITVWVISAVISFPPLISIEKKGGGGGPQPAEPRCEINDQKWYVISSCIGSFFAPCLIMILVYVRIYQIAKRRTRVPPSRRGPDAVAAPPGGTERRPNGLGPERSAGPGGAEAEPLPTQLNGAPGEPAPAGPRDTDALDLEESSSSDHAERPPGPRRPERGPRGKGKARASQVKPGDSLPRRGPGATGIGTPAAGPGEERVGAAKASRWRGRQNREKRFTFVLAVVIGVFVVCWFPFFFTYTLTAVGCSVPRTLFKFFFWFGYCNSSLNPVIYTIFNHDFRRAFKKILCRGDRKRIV

[29] = target: T2, Muscarinic acetylcholine receptor M5 (Homo sapiens) (UniProt P08912); conditions: Compound concentration 10.0 uM
T2 sequence (whole entry): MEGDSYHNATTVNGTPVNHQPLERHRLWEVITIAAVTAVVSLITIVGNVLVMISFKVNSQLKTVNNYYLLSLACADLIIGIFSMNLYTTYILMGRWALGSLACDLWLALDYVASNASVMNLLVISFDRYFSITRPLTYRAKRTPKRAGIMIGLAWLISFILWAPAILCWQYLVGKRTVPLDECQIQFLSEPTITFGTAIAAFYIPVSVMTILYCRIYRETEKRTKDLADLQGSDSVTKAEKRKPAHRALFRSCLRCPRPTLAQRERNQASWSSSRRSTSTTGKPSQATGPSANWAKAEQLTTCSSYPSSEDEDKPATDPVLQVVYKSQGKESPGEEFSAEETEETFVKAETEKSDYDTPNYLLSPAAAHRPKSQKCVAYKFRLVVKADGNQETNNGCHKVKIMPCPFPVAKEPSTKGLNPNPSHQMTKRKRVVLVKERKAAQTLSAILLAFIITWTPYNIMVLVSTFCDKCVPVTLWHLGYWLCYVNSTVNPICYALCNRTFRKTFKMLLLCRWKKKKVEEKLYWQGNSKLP

D(1A) dopamine receptor (Homo sapiens), sequence (P21728 whole entry): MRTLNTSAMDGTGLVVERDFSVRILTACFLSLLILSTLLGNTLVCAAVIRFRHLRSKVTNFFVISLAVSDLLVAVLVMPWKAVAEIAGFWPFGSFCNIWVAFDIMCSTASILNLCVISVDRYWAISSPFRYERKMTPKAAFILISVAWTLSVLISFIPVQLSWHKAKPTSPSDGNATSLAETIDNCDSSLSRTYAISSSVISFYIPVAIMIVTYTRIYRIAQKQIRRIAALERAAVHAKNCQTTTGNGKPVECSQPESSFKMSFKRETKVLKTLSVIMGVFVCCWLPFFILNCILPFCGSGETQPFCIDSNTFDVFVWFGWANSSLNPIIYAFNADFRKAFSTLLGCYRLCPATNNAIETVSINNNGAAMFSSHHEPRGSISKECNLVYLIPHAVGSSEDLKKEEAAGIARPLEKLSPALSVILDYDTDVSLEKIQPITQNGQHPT
Phosphatidylinositol 4,5-bisphosphate 3-kinase catalytic subunit alpha isoform (Homo sapiens), P42336 [C420R], sequence (P42336 whole entry C420R, canonical isoform): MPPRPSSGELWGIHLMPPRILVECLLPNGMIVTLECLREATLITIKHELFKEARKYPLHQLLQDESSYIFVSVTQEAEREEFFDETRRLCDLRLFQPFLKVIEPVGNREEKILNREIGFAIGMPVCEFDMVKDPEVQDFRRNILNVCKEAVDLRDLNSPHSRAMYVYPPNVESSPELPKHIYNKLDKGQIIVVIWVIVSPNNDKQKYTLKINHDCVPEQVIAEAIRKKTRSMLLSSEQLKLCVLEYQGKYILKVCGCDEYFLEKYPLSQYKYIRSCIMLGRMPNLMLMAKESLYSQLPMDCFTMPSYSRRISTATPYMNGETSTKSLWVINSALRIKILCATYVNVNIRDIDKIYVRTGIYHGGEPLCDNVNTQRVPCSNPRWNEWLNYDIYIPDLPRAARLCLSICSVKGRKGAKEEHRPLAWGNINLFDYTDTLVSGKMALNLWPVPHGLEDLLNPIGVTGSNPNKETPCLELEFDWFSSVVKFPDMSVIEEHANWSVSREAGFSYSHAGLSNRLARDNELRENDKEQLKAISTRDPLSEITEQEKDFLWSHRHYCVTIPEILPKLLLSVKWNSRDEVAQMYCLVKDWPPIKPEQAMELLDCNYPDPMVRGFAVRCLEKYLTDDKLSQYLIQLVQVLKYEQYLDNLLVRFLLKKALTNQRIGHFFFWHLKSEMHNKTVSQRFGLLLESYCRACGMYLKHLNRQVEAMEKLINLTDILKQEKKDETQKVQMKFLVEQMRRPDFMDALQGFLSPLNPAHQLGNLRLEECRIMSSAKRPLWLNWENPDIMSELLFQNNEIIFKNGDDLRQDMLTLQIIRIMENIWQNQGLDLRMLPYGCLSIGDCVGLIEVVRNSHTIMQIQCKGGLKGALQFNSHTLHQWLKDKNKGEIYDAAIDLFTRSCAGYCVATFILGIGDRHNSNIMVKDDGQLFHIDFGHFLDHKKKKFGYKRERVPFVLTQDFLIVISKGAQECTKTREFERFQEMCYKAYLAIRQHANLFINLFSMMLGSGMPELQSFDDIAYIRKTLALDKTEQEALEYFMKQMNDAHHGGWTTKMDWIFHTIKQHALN
Epidermal growth factor receptor (Homo sapiens), P00533 [UNDEFINED MUTATION], sequence (P00533 whole entry, looked up, change not shown): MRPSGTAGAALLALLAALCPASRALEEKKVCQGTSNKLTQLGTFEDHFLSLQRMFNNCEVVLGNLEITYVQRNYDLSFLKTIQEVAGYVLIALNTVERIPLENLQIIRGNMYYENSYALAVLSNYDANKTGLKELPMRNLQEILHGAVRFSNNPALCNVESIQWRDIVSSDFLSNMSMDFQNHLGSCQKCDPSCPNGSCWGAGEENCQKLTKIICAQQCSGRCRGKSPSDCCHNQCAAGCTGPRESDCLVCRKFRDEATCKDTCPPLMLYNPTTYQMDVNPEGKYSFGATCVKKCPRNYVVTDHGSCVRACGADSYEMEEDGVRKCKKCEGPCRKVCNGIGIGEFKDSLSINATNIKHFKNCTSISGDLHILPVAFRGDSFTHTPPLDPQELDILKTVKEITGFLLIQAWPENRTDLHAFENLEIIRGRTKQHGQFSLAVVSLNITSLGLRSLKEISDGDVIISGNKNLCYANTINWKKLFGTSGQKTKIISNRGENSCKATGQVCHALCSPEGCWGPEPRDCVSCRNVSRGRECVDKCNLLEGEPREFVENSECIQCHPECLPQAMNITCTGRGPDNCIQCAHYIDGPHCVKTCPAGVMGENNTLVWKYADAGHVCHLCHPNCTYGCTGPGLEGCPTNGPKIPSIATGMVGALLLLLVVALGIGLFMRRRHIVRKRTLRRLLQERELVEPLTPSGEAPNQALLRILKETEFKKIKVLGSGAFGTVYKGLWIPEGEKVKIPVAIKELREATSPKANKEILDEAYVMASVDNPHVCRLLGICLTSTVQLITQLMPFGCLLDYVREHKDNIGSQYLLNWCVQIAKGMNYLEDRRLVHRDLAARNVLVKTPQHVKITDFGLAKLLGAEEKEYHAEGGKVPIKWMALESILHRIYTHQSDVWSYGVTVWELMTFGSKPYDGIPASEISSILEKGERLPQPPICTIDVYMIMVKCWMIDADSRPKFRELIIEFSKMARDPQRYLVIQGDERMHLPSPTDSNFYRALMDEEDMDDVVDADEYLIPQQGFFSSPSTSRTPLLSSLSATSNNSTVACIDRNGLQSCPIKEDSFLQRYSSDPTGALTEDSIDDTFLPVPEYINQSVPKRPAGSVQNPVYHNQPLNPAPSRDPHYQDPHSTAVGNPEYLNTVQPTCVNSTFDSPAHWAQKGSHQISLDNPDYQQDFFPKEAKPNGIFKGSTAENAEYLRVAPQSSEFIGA
cAMP-dependent protein kinase catalytic subunit PRKX (Homo sapiens), sequence (P51817 whole entry): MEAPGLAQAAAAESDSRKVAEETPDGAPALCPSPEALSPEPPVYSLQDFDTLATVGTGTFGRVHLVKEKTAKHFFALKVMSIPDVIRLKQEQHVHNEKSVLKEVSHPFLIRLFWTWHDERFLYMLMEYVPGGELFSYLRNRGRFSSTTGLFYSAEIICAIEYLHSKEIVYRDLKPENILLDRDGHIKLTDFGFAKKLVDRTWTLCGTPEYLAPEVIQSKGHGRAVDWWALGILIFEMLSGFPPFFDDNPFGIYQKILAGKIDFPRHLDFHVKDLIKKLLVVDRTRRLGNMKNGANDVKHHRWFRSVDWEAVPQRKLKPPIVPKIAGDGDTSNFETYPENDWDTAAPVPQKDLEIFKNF
Tyrosine-protein kinase ABL1 (Homo sapiens), P00519 [F317L], sequence (P00519 whole entry F317L): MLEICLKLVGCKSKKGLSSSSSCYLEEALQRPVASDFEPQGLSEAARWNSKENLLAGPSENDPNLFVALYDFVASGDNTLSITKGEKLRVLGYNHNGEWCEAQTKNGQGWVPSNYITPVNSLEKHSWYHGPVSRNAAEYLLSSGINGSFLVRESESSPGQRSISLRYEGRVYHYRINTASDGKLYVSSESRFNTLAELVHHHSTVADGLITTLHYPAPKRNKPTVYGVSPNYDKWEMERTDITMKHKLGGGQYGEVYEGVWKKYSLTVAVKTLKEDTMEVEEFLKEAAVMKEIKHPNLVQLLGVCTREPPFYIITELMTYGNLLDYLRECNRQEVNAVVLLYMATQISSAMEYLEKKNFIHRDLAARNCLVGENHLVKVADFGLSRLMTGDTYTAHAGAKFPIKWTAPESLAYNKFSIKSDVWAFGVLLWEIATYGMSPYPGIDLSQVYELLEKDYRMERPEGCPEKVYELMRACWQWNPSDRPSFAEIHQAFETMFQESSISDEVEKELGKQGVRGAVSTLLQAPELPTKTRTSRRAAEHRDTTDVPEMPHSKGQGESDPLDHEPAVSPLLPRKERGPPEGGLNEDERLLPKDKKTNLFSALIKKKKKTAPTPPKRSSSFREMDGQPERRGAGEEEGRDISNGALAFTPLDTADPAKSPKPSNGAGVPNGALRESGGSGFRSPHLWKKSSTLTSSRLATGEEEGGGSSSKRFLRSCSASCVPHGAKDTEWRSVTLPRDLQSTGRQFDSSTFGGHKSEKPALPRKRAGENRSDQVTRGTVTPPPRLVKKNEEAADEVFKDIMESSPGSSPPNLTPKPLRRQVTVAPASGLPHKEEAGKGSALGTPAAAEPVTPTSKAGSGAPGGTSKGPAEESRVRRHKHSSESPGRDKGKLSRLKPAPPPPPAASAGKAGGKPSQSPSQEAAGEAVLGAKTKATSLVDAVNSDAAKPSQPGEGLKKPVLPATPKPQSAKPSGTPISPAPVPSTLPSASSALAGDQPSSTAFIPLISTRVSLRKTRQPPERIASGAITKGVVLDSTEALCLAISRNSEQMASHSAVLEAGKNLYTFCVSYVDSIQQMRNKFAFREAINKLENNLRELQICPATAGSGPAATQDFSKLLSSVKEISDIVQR
TGF-beta receptor type-1 (Homo sapiens), sequence (P36897 whole entry): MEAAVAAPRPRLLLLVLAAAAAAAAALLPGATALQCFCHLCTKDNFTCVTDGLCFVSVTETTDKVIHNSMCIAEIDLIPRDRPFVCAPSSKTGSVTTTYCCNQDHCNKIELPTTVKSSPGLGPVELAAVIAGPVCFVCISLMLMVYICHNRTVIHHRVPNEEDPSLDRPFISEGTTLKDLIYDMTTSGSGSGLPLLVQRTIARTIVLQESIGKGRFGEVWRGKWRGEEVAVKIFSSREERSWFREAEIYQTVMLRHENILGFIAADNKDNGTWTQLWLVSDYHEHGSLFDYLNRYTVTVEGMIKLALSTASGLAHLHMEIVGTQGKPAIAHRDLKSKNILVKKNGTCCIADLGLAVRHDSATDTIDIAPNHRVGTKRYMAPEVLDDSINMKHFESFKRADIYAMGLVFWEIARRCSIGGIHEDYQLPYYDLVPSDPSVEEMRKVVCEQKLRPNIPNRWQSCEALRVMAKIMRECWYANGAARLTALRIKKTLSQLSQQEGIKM
Prostaglandin E2 receptor EP2 subtype (Homo sapiens), sequence (P43116 whole entry): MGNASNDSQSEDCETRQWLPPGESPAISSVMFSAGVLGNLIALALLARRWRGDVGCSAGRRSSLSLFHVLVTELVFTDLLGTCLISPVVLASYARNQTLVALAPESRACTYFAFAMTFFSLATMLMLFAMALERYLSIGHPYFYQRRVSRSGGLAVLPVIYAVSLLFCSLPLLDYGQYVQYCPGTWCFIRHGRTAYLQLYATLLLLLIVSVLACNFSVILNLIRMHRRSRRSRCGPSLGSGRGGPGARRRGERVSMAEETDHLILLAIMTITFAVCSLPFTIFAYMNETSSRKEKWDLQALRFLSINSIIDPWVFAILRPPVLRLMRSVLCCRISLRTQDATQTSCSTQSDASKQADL

In the case of `COc1ccc2c(c1)O[C@H](c1ccc(OC)c(OC)c1)C[C@@H]2NC(=O)C1(c2ccc3c(c2)OC(F)(F)O3)CC1` [A-1596584], the % Inhibition of Control Specific Binding (Mean n=2) [1] is reported as -9%, the % Inhibition of Control Specific Binding (Mean n=2) [2] is reported as 1.3% and the % Inhibition of Control Specific Binding (Mean n=2) [3] is reported as 13.1%. The residual activity [4] was 97%, the residual activity [5] was 100% and the residual activity [6] was 85%. The residual activity [7] was 100%, the residual activity [8] was 64% and the residual activity [9] was 100%. The residual activity [10] was 84%, the residual activity [11] was 92% and the residual activity [12] was 97%. It also gave a residual activity [13] of 91%, a residual activity [14] of 98% and a residual activity [15] of 98%. For the same compound, the residual activity [16] was 100%, the residual activity [17] was 91% and the residual activity [18] was 100%. For the same compound, the residual activity [19] was 100%, the residual activity [20] was 100% and the residual activity [21] was 100%. It also gave a residual activity [22] of 70%, a residual activity [23] of 100% and a residual activity [24] of 85%. The residual activity [25] was 82%, the inhibition [26] was 35.1% and the inhibition [27] was 11.1%. For the same compound, the inhibition [28] was 14.9% and the inhibition [29] was 16.1%.

Compound `COc1ccc2c(c1)O[C@@H](c1ccc(OC)c(OC)c1)C[C@H]2NC(=O)C1(c2ccc3c(c2)OC(F)(F)O3)CC1` [A-1596586] has a % Inhibition of Control Specific Binding (Mean n=2) [1] of -9.1%, a % Inhibition of Control Specific Binding (Mean n=2) [2] of 8.7% and a % Inhibition of Control Specific Binding (Mean n=2) [3] of 9.3%. For the same compound, the residual activity [4] was 94%, the residual activity [5] was 94% and the residual activity [6] was 100%. It also gave a residual activity [7] of 100%, a residual activity [8] of 68% and a residual activity [9] of 82%. The residual activity [10] was 100%, the residual activity [11] was 93% and the residual activity [12] was 95%. It also gave a residual activity [13] of 77%, a residual activity [14] of 75% and a residual activity [15] of 100%. The residual activity [16] was 100%, the residual activity [17] was 86% and the residual activity [18] was 83%. For the same compound, the residual activity [19] was 100%, the residual activity [20] was 98% and the residual activity [21] was 100%. It also gave a residual activity [22] of 92%, a residual activity [23] of 100% and a residual activity [24] of 65%. For the same compound, the residual activity [25] was 67%, the inhibition [26] was 29.2% and the inhibition [27] was 2.64%. For the same compound, the inhibition [28] was 17.6% and the inhibition [29] was 2.95%.
